Earlier results in patent publication US20060046998A1, “Method of treatment of gastroesophageal reflux disease and laryngopharyngeal reflux disease” (Fairfield Clinical Trials, LLC, priority 2004, published 2006).

Conditions: oral, when beginning a course of PPI therapy

## COc1ccc2nc([S@@+]([O-])Cc3ncc(C)c(OC)c3C)[nH]c2c1 [esomeprazole]
  time to obtain maximal symptomatic relief: four

## Cc1c(OCC(F)(F)F)ccnc1C[S+]([O-])c1nc2ccccc2[nH]1 (centres unmarked) [lansoprazole]
  time to obtain maximal symptomatic relief: five
